Here are results for 1 compound from patent publication US20070122802A1, “Methods of diagnosing and treating diabetes and insulin resistance” (priority 2002, published 2007).

Common to all, as to assay type: in vivo, human
The subject of test [1] is HIOMT. The experiment in a line: Gene expression profiling (Affymetrix chips) of muscle from diabetics before/after troglitazone: HIOMT transcripts. To be noted: HIOMT mRNA, Basal sample. From the text: (§1) The molecular mechanism by which thiazolidinediones (TZDs) cause an increase in peripheral insulin sensitivity was studied. Genes in muscle or fat whose expression is altered by TZDs may lie on a pathway leading from TZD treatment to increased insulin sensitivity. Modulators of such genes can elicit the same effect as TZD treatment. Moreover, such modulators can lack some of the side effects of TZD. The majority of glucose disposal occurs in muscle. For this reason, gene expression profiling in human muscle from diabetics treated with troglitazone was used to identify genes important for TZD action and therefore treatment of diabetes and insulin resistance. […]
(§2) In the second study, samples were obtained from lean, obese, and diabetic individuals before and after a hyperinsulinemic euglycemic clamp. […] The gene expression profile for each individual was determined by hybridization of cRNA to custom synthesized Affymetrix chips.
(§3) Gene expression profile differences were calculated as follows. […] The raw data was analyzed by a statistical test to remove ‘outliers’. The mean ‘average difference score’ was then calculated from the average difference scores for all individuals in a particular treatment group. Genes were determined to be changed in three different comparisons by calculating the Students t test statistic between two conditions and selecting those with t less than or equal to 0.05. […]

The subject of test [2] is Endothelin A receptor. The experiment in a line: Gene expression profiling (Affymetrix chips) of muscle from diabetics before/after troglitazone: Endothelin A receptor transcripts. The note with it: Endothelin A receptor mRNA, Clamp sample.
Description: as §1, §2, §3

Test [3] has as its system Ceramidase. The test is described as follows: Gene expression profiling (Affymetrix chips) of muscle from diabetics before/after troglitazone: ceramidase transcripts. To be noted: Ceramidase mRNA, Clamp sample.
Description: as §1, §2, §3

In test [4] the test system is PRK1. The test is described as follows: Gene expression profiling (Affymetrix chips) of muscle from diabetics before/after troglitazone: PRK1 transcripts. To be noted: PRK1 mRNA, Basal sample.
Description: as §1, §2, §3

The mark [5] stands for this setting: 3 months of Troglitazone treatment.

With `Cc1c(C)c2c(c(C)c1O)CCC(C)(COc1ccc(CC3SC(=O)NC3=O)cc1)O2` (centres unmarked) [Troglitazone, troglitazone], the “Fold Change (diabetic post tro/diabetic pre tro)” value in test [1] (setting [5]) turned out to be 1.51; in test [2] (setting [5]), 0.52; in test [3] (setting [5]), 0.68; in test [4] (setting [5]), 0.54. For the same compound, the “Diabetic Post-Trog Mean Expr” value in test [1] (diabetic patients after 3 months of Troglitazone treatment (pre-Trog mean 518)) was 781; in test [2] (diabetic patients after 3 months of Troglitazone treatment (pre-Trog mean 194)) it was 102; in test [4] (diabetic patients after 3 months of Troglitazone treatment (pre-Trog mean 1634)), 874. In test [3] (diabetic patients after 3 months of Troglitazone treatment (pre-Trog mean 630)), the “Diabetic Post-Trog Mean Exp” value was determined as 427.
